Experimental data from patent publication US9340532B2, “Methods and compositions for inhibiting CNKSR1” (PHUSIS THERAPEUTICS, INC., priority 2012, dated 2016).
Several values for one entry are separate records, joined by “and”; a condition that tells them apart may be missing. Equal entries are not always repeated. Entries after “also recorded” stand apart in the source; their conditions may differ. Where two headings read alike, the source gives them in different places.

Legend:
[1] = target: T1, PH-domain of CNKSR1 (Homo sapiens, UniProt Q969H4); assay: SPR binding (Biacore 2000) to CNKSR1 PH-domain, initial hits; conditions: Table 5
T1 sequence (Q969H4 403-502 limits assumed): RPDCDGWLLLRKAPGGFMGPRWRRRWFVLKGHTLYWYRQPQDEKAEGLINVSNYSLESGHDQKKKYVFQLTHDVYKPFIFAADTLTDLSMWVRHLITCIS
Procedure: In embodiments, a homology model for the PH-domain of CNSKR1 based on known PH-domain crystal structures can be developed. The docking program PHuDock® can be used to identify potential inhibitors of CNKSR1. […] The binding of the compounds to the expressed PH-domain of CNKSR1 (KDobs) can be measured by surface plasmon resonance (SPR) spectroscopy.
Other docking was performed using modeling algorithms with state-of-the-art commercial drug discovery software (Schrodinger suite). […] Additionally, ligand-based approaches provided an alternative to structure based drug discovery. Ligand-based virtual screening methodologies can take into account shape and electrostatics (like ROCS) and the pharmacophoric features (acceptor, donor, hydrophobic, aromatic, etc.) of its functional groups. […] SPR interaction analyses of all other compounds was undertaken using a Biacore T100 with Control and Evaluation software kit.

[2] = target: T2, AKT1 PH-domain (Homo sapiens, UniProt P31749); assay: SPR binding assay (Biacore T100), AKT1 PH-domain; conditions: Table 6; read-out: AKT KD
T2 construct: The PH-domain His-fusion proteins (CNK1 and AKT1) were expressed and immobilized on a NTA chip; made in house
Method in brief: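 His-tagged AKT1 PH domain immobilized on NTA chip to ≤10,000 RU, Biacore T100. Small-molecule analytes injected at 50 μM to 0.010 μM, 30 μL/min, with 1-5% (v/v) DMSO in samples and running buffer.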

[3] = tested on: mut-KRAS NSCLC cell lines; assay: Screening against NSCLC cell line panel, mut-KRAS lines; format: cell-based
Procedure: (§1) The isogenic KRAS lines harboring G12D, G12C, and G12V were obtained from Horizon Discovery labs on a one year lease. These cells were cultured in McCoys media with 10% FBS to 80% confluency. Cells were then released from flasks via trypsinization and plated into 96-well plates at an initial density range of 2000 cells per well. Cells were allowed 24 hours to attach, and then the agents were added to the culture media at a range of concentrations from 0-100 μM. Cells were incubated for 72 hours with the drugs, and then viability was assessed using an MTS viability assay. Cells were exposed to MTS reagent (Promega) dissolved in PBS (Hyclone) at a concentration of 200 μL reagent/mL media for 2 hours. Absorbance was then read at 490 nm, and viability was expressed as a percentage normalized between the negative control (no cells plated) and the condition of cells with no drug added (100% viability) normalized as the upper limit of viability.
(§2) Our panel of 30 cell lines and an extensive characterization were obtained from Dr. John Minna (UTSW). All cell lines were cultured in RPMI 1640 with 10% FBS. Cells were treated with concentrations of agents at concentrations 0.01 to 50 μM and evaluated as described above. IC50's were determined using Excelfit.

[4] = tested on: wt-KRAS NSCLC cell lines; assay: Screening against NSCLC cell line panel, wt-KRAS lines; format: cell-based; conditions: Table 6, mean of 3 wt-KRAS lines; read-out: NSCL cell line cytotoxicity IC50 wt-KRAS
Procedure: as §1, §2

[5] = tested on: A549 (KRAS mutant cell line); assay: Proliferation Assay A549; format: cell-based; conditions: Homo sapiens, N = 2 experiments
Method in brief: (§3)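 Cells plated 2000 per well, allowed 24 h to attach, then exposed 72 h to agents (0-100 μM for isogenic lines; 0.01 to 50 μM for the RPMI 1640/10% FBS-cultured 30-line NSCLC panel). MTS read at 490 nm after 2 h, normalized to no-cell and no-drug controls; IC50 from curve fitting.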

[6] = tested on: H1373 (KRAS mutant cell line); assay: Proliferation Assay H1373; format: cell-based; conditions: Homo sapiens, NCI-H1373, N = 2 experiments
Method in brief: as §3

[7] = tested on: H1975 (KRAS wildtype cell line); assay: Proliferation Assay H1975; format: cell-based; conditions: Homo sapiens, NCI-H1975, n = 1
Method in brief: as §3

[8] = Pharmacokinetics after oral administration; format: in vivo, mice; conditions: for elimination half life: oral, mice
Procedure: In order to understand better the reasons for the antitumor activity of compound #7 pharmacokinetic studies were conducted. […] Following oral administration in vivo plasma concentrations of the parent compound were low, about 3 μg/ml (7 μM) whereas the de-esterified acid form (compound 8) was present at high peak concentrations of around 50 μg/ml (128 μM). When compound 8 was administered orally to mice at the same dose even higher peak concentrations of 90 μg/ml (230 μM) were achieved.

[9] = Stability in biological media: dog plasma; format: in vitro ADME; conditions: Dog plasma (beagle), 50 μg/ml, 37° C.
[10] = Stability in biological media: human plasma; format: in vitro ADME; conditions: 50 μg/ml, 37° C.
[11] = Stability in biological media: fetal bovine serum; format: in vitro ADME; conditions: 10% fetal bovine serum, 50 μg/ml, 37° C.

T2 sequence (P31749 5-108 limits assumed): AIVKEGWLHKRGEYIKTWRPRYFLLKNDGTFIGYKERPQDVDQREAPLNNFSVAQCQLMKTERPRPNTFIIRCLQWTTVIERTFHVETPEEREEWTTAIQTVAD

- Kd [1]: 1.8 ± 0.6 µM
- Kd [2]: 17.3 µM
- IC50 ([3]; Table 5, read-out: Mean IC50 mut-KRAS): 23.9 ± 2.5 µM
- IC50 [5]: 15 µM
- IC50 [6]: > 100 µM
- IC50 [7]: 45 µM
- plasma concentration of the parent compound ([8]; compound #7 orally 200 mg/kg, 200 mg/kg): about 3 μg/ml and ~7 μM
- elimination half life [8]: 13 h
- elimination half life ([8]; listed as #7): 6 h
- metabolism in vivo to the acid metabolite ([8]; orally 200 mg/kg, FIG. 4B): rapidly de-esterified
- Half life [9]: 9.3 h
- Half life [10]: stable
- Half life ([10]; listed as #7): completely stable
- Half life [11]: 13.2 h
Structure (SMILES): CCOC(=O)Cc1nn(Cc2nc(-c3ccc(C)cc3)cs2)c(=O)c2ccccc12 [Compound 7]
- inhibition of mut-KRAS cell growth (in words) ([3]; FIG. 3 and FIG. 5): low micromolar inhibition; also recorded: as effectively as siRNA to KRAS or CNKSR1
- IC50 ([3]; Table 6, mean of 3 mut-KRAS lines, read-out: NSCL cell line cytotoxicity IC50 mut-KRAS): 49 µM
- IC50 [4]: > 100 µM
